From PubChem BioAssay AID248 (DTP/NCI, 2004)
Inconclusive results and toxic doses are left out.

System: L1210 leukemia ip in BDF1 mice, survival T/C
Experiment: NCI In Vivo Anticancer Drug Screen. Data for tumor model L1210 Leukemia (intraperitoneal) in B6D2F1 (BDF1) mice
Details: endpoint: mean survival time, higher = longer survival
How it was run: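 Tumor cells were implanted, animals were treated, and survival was followed. The result divides the treated measurement by the vehicle-control measurement.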

[1] = dose: 100.0 mg/kg/injection, schedule: Q01DX009 (ip), vehicle: saline with Tween-80
[2] = dose: 200.0 mg/kg/injection, schedule: Q01DX009 (ip), vehicle: saline with Tween-80
[3] = dose: 100.0 mg/kg/injection, schedule: Q04DX003 (ip), vehicle: saline with Tween-80
[4] = dose: 200.0 mg/kg/injection, schedule: Q04DX003 (ip), vehicle: saline with Tween-80
[5] = dose: 400.0 mg/kg/injection, schedule: Q01DX009 (ip), vehicle: saline with Tween-80
[6] = dose: 400.0 mg/kg/injection, schedule: Q04DX003 (ip), vehicle: saline with Tween-80
[7] = dose: 100.0 mg/kg/injection, schedule: Q04DX003 (ip), vehicle: saline
[8] = dose: 200.0 mg/kg/injection, schedule: Q04DX003 (ip), vehicle: saline
[9] = dose: 400.0 mg/kg/injection, schedule: Q04DX003 (ip), vehicle: saline
[10] = dose: 100.0 mg/kg/injection, schedule: Q01DX009 (ip), vehicle: saline
[11] = dose: 100.0 mg/kg/injection, schedule: Q04DX002 (ip), vehicle: saline
[12] = dose: 200.0 mg/kg/injection, schedule: Q04DX002 (ip), vehicle: saline
[13] = dose: 400.0 mg/kg/injection, schedule: Q04DX002 (ip), vehicle: saline

CC(Br)C(=O)NCC(=O)O (centres undefined)
T/C [1]: 93 % of control | T/C [2]: 92 % of control

CCCNC(=O)Nc1cccc(C(F)(F)F)c1
T/C [1]: 100 % of control | T/C [3]: 100 % of control | T/C [2]: 97 % of control | T/C [4]: 97 % of control | T/C [5]: 88 % of control | T/C [6]: 106 % of control

CC1(Cl)C(=O)NN=C1c1ccc([N+](=O)[O-])cc1 (centres undefined)
T/C (dose: 100.0 mg/kg/injection, schedule: Q01DX001 (ip), vehicle: carboxymethylcellulose (CMC)): 102 % of control | T/C (dose: 200.0 mg/kg/injection, schedule: Q01DX001 (ip), vehicle: carboxymethylcellulose (CMC)): 102 % of control | T/C (dose: 400.0 mg/kg/injection, schedule: Q01DX001 (ip), vehicle: carboxymethylcellulose (CMC)): 105 % of control

Cc1ccc(S(=O)(=O)OCC2Oc3ccccc3O2)cc1
T/C (dose: 75.0 mg/kg/injection, schedule: Q04DX003 (ip), vehicle: Klucel (hydroxypropylcellulose) (HPC)): 93 % of control | T/C (dose: 150.0 mg/kg/injection, schedule: Q04DX003 (ip), vehicle: Klucel (hydroxypropylcellulose) (HPC)): 107 % of control | T/C (dose: 300.0 mg/kg/injection, schedule: Q04DX003 (ip), vehicle: Klucel (hydroxypropylcellulose) (HPC)): 100 % of control

Cc1ccnc(SC#N)n1
T/C (dose: 5.0 mg/kg/injection, schedule: Q01DX001 (ip), vehicle: other): 105 % of control | T/C (dose: 10.0 mg/kg/injection, schedule: Q01DX001 (ip), vehicle: other): 105 % of control

CC(=O)c1ccc(NC(=O)N(CCCl)N=O)cc1
T/C (dose: 2.0 mg/kg/injection, schedule: Q01DX001 (ip), vehicle: carboxymethylcellulose (CMC)): 122 % of control | T/C (dose: 18.0 mg/kg/injection, schedule: Q01DX001 (ip), vehicle: carboxymethylcellulose (CMC)): 190 % of control | T/C (dose: 25.0 mg/kg/injection, schedule: Q01DX001 (ip), vehicle: carboxymethylcellulose (CMC)): 152 % of control | T/C (dose: 75.0 mg/kg/injection, schedule: Q01DX001 (ip), vehicle: carboxymethylcellulose (CMC)): 191 % of control | T/C (dose: 150.0 mg/kg/injection, schedule: Q01DX001 (ip), vehicle: carboxymethylcellulose (CMC)): 160 % of control | T/C (dose: 300.0 mg/kg/injection, schedule: Q01DX001 (ip), vehicle: carboxymethylcellulose (CMC)): 97 % of control

CC1(C)N=C(N)N=C(N)N1c1ccc(CCNC(=O)c2ccc(S(=O)(=O)F)cc2)cc1
T/C (dose: 25.0 mg/kg/injection, schedule: Q01DX001 (ip), vehicle: Klucel (hydroxypropylcellulose) (HPC)): 90 % of control | T/C (dose: 50.0 mg/kg/injection, schedule: Q01DX001 (ip), vehicle: Klucel (hydroxypropylcellulose) (HPC)): 96 % of control | T/C (dose: 100.0 mg/kg/injection, schedule: Q01DX001 (ip), vehicle: Klucel (hydroxypropylcellulose) (HPC)): 90 % of control

COc1cc(C)c(OC)cc1C
T/C [3]: 99 % of control | T/C [4]: 99 % of control | T/C [6]: 94 % of control

CC(=O)/C(C1=NCCC1)=C(/C)O
T/C [7]: 92 % of control | T/C [8]: 98 % of control | T/C [9]: 98 % of control

O=S(CCO)CCS(=O)CCO (centres undefined)
T/C (dose: 75.0 mg/kg/injection, schedule: Q01DX009 (ip), vehicle: saline): 95 % of control | T/C [7]: 106 % of control | T/C (dose: 150.0 mg/kg/injection, schedule: Q01DX009 (ip), vehicle: saline): 101 % of control | T/C [8]: 110 % of control | T/C (dose: 300.0 mg/kg/injection, schedule: Q01DX009 (ip), vehicle: saline): 97 % of control | T/C [9]: 100 % of control

Clc1ccc(CSc2ncc(Br)c(N3CC3)n2)cc1
T/C (dose: 100.0 mg/kg/injection, schedule: Q01DX Z (ip), vehicle: methylcellulose (MC)): 93 % of control | T/C (dose: 200.0 mg/kg/injection, schedule: Q01DX Z (ip), vehicle: methylcellulose (MC)): 88 % of control

CN1CCC(OC2c3ccccc3CCc3ccccc32)CC1
T/C (dose: 3.12 mg/kg/injection, schedule: Q01DX009 (ip), vehicle: saline): 109 % of control | T/C (dose: 6.25 mg/kg/injection, schedule: Q01DX009 (ip), vehicle: saline): 108 % of control | T/C (dose: 12.5 mg/kg/injection, schedule: Q01DX009 (ip), vehicle: saline): 106 % of control | T/C (dose: 25.0 mg/kg/injection, schedule: Q01DX009 (ip), vehicle: saline): 111 % of control | T/C (dose: 25.0 mg/kg/injection, schedule: Q04DX003 (ip), vehicle: saline): 100 % of control | T/C (dose: 50.0 mg/kg/injection, schedule: Q01DX009 (ip), vehicle: saline): 117 % of control | T/C (dose: 50.0 mg/kg/injection, schedule: Q04DX003 (ip), vehicle: saline): 103 % of control | T/C [10]: 88 % of control | T/C [7]: 86 % of control

COc1cc(C=Nc2cc(Cl)c(Cl)c(Cl)c2)ccc1N(CCCl)CCCl
T/C (dose: 15.0 mg/kg/injection, schedule: Q01DX001 (ip), vehicle: carboxymethylcellulose (CMC)): 123 % of control | T/C (dose: 30.0 mg/kg/injection, schedule: Q01DX001 (ip), vehicle: carboxymethylcellulose (CMC)): 121 % of control

CC1OCC2OC(C)OC(C(COC(c3ccccc3)(c3ccccc3)c3ccccc3)OS(C)(=O)=O)C2O1 (centres undefined)
T/C [10]: 101 % of control | T/C [7]: 102 % of control | T/C (dose: 200.0 mg/kg/injection, schedule: Q01DX009 (ip), vehicle: saline): 106 % of control | T/C [8]: 98 % of control | T/C (dose: 400.0 mg/kg/injection, schedule: Q01DX009 (ip), vehicle: saline): 88 % of control | T/C [9]: 93 % of control

O=[N+]([O-])c1ccc(S)c(Cl)c1
T/C (dose: 12.5 mg/kg/injection, schedule: Q01DX009 (ip), vehicle: Klucel (hydroxypropylcellulose) (HPC)): 104 % of control | T/C (dose: 25.0 mg/kg/injection, schedule: Q01DX009 (ip), vehicle: Klucel (hydroxypropylcellulose) (HPC)): 104 % of control

C[N+](C)(C)Cc1ccc([N+](=O)[O-])cc1
T/C (dose: 2.2 mg/kg/injection, schedule: Q01DX001 (ip), vehicle: saline): 101 % of control | T/C (dose: 3.3 mg/kg/injection, schedule: Q01DX001 (ip), vehicle: saline): 97 % of control | T/C (dose: 5.0 mg/kg/injection, schedule: Q01DX001 (ip), vehicle: saline): 94 % of control | T/C (dose: 7.5 mg/kg/injection, schedule: Q01DX001 (ip), vehicle: saline): 101 % of control

CCOC(=O)CCN(CCC(=O)OCC)C(C)C
T/C [1]: 100 % of control | T/C [3]: 101 % of control | T/C [2]: 90 % of control | T/C [4]: 101 % of control | T/C [5]: 98 % of control | T/C [6]: 101 % of control

Cc1ccnc(-n2c(N)cc(=O)[nH]c2=S)c1
T/C [11]: 102 % of control | T/C [12]: 107 % of control | T/C [13]: 107 % of control

C/C=N/N(C)C=O
T/C [7]: 104 % of control | T/C [8]: 119 % of control

COC(C)(C)C(N)C(=O)O (centres undefined)
T/C (dose: 100.0 mg/kg/injection, schedule: Q01DX001 (ip), vehicle: other): 102 % of control | T/C (dose: 100.0 mg/kg/injection, schedule: Q04DX003 (ip), vehicle: other): 120 % of control | T/C (dose: 200.0 mg/kg/injection, schedule: Q01DX001 (ip), vehicle: other): 102 % of control | T/C (dose: 200.0 mg/kg/injection, schedule: Q04DX003 (ip), vehicle: other): 114 % of control | T/C (dose: 400.0 mg/kg/injection, schedule: Q01DX001 (ip), vehicle: other): 102 % of control | T/C (dose: 400.0 mg/kg/injection, schedule: Q04DX003 (ip), vehicle: other): 96 % of control

O=C(CNC(=O)c1cccc(C(=O)NCC(=O)Nc2ccc(C3=NCCN3)cc2)c1)Nc1ccc(C2=NCCN2)cc1
T/C (dose: 4.0 mg/kg/injection, schedule: Q01DX Z (ip), vehicle: water): 107 % of control | T/C (dose: 6.0 mg/kg/injection, schedule: Q01DX Z (ip), vehicle: water): 104 % of control | T/C (dose: 9.0 mg/kg/injection, schedule: Q01DX Z (ip), vehicle: water): 113 % of control | T/C (dose: 12.0 mg/kg/injection, schedule: Q01DX Z (ip), vehicle: water): 153 % of control

NC(=O)NC1CON(C(N)=O)C1=O (centres undefined)
T/C [11]: 94 % of control | T/C [12]: 112 % of control | T/C [13]: 94 % of control

Cc1ccc(C(N)=O)cn1
T/C [1]: 104 % of control | T/C [2]: 104 % of control | T/C [4]: 107 % of control | T/C [5]: 101 % of control | T/C [6]: 97 % of control

O=C1c2cccc3cccc(c23)C1(Br)C(Br)c1ccccc1 (centres undefined)
T/C (dose: 100.0 mg/kg/injection, schedule: Q04DX002 (ip), vehicle: saline with Tween-80): 97 % of control | T/C (dose: 200.0 mg/kg/injection, schedule: Q04DX002 (ip), vehicle: saline with Tween-80): 97 % of control | T/C (dose: 400.0 mg/kg/injection, schedule: Q04DX002 (ip), vehicle: saline with Tween-80): 97 % of control
